Results on two compounds are retold here after patent US11890279B2, “Quinolines that modulate SERCA and their use for treating disease” (Neurodon Corporation, priority 2020, dated 2024).

Each structure is given as a SMILES string.

For one data set, the system named is Ca^2+-ATPase. The data set can be described thus: Ca2+-ATPase assay, microsomal preparations from HEK 293 cells. It counts as biochemical, human. As for the experimental part: A Ca^2+-ATPase assay was performed using microsomal preparations from HEK 293 cells at a series of calcium concentrations corresponding to the physiological range, relative to controls. The ATP hydrolysis rate was measured over a range of calcium concentrations in the presence of test compounds using an NADH-linked, enzyme-coupled ATPase assay adapted for 96-well microplates, with Vmax determined by fitting the ATPase calcium-dependence to the Hill function. […] CaCl2 was added to set free [Ca^2+] to the specific values.

In a further data set the test system is livers of ob/ob mice. The data set can be described thus: Reduction of ER stress markers in liver of ob/ob mice (western blot). The data set is classed as in vivo, mouse. As to conditions: 50 mg/kg. Here is the method:
Proteins were analyzed by western blot and quantified. Bands were normalized to GAPDH and expressed as 100% of ob/ob+vehicle (ob). Liver tissues were homogenized with a bench-top homogenizer in an ice-cold tissue lysis buffer. The homogenized samples were centrifuged at 8,000×g for 20 min at 4° C. The lipid layer was removed and the supernatant was transferred into Eppendorf tubes. After centrifuging at 16,000×g for 60 min at 4° C., the supernatants were normalized to the same concentration and boiled at 100° C. in 1× Laemmli buffer for 5 min. The lysate was cooled to room temperature before loading for Western blot analysis. Protein lysate was resolved on SDS polyacrylamide gel and transferred onto PVDF membrane at a voltage of 100 V for 2 hrs at 4° C. The membrane was blocked in 10% blocking reagent and incubated overnight with a primary antibody in Tris-buffered saline solution/Tween (TBST)/10% blocking reagent at 4° C. After incubation, the membrane was washed three times in TBST for 20 min and incubated at room temperature with a secondary antibody in TBST/10% blocking reagent for 1 hr. The membrane was washed three times for 20 min and developed using a chemiluminescence assay system. To strip a membrane for another primary antibody, the membrane was agitated at 50° C. for 20 min in a box with stripping buffer (2% SDS and 100 mM 2-mercaptoethanol in TBS, pH 7.5). […]
In general terms: In western blotting, separated proteins are transferred to a membrane and probed.

In another data set the test system is ob/ob mice. Briefly: Effect on the level of blood glucose in ob/ob mice. It counts as in vivo, mouse. As to conditions: for blood glucose: 10 or 50 mg/kg i.p. once a day for 5 days, as early as day 2; for glucose level after the last injection: for over a week after the last injection. Here is the method: Fasting glucose was measured at baseline and 10 hours after the administration of the test compound. Glucose levels were measured in blood samples drawn from the tail vein using the OneTouch Ultra 2 Meter (LifeScan, Inc.).

Data set [1] is described as follows: Pharmacokinetics in CD-1 mice. The data set is classed as in vivo, mouse. As to conditions: for F / AUC / Cmax / half-life: CD-1 mice; for F: 10 mg/kg P.O. vs 2 mg/kg i.v.; for AUC / Cmax / half-life: mouse, plasma, 2 mg/kg i.v. or 10 mg/kg P.O. The gist of the method:
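CD-1 mice (triplicate) dosed 2 mg/kg i.v. or 10 mg/kg oral gavage, formulated 1 mg/mL in DMSO/Tween 80/water (10/10/80). EDTA plasma sampled 0.25–24 h, acetonitrile-precipitated and quantified by positive-ion MRM LC/MS/MS against internal standard; PK parameters fitted from concentration–time data.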

Another data set relates to human islet microtissues. Briefly: Protection of human pancreatic islets under cytokine stress. The data set is classed as cell-based. The settings on record: 168 h, compound 5 μM, cytokine cocktail IL1-β, IFN-γ, TNF-α, 7 days, read-out: increase in viability over baseline (total ATP content). Here is the method: Human pancreatic islet microtissues treated with cytokines were used to model the conditions of Type 1 Diabetes in vitro. This study tested the effects of compounds on […] viability in human islets under cytokine stress. The model consisted of human islet microtissues from an HLA-A2 positive donor grown and separated in a 96-well plate (1 microtissue per well). The microtissues were treated for 7 days with a cocktail of cytokines (IL1-β 5 ng/mL, IFN-γ 25 ng/mL, TNF-α 25 ng/mL) and compound (5 μM) or vehicle. There were 6 microtissues treated per compound or vehicle. At day 7, the total ATP content was measured using CellTiter-Glo (Promega).

A further data set concerns N2a cells. The data set can be described thus: Protection against thapsigargin (TG)-induced cell death, N2a. As to conditions: compound 20 μM; thapsigargin 1 μM; 24 hrs. The data set is classed as cell-based, mouse. The gist of the method: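 Cells pretreated with 20 μM compound for 2 h, then thapsigargin (15 μM HEK293, 1 μM N2a) for 24 h to induce ER stress. Viability by AlamarBlue fluorescence at 2 h as % RFU of control, binned A–D by % cell rescue.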

A further data set has as its system HEK293 cells. Briefly: Protection against thapsigargin (TG)-induced cell death, HEK293. It counts as cell-based, human. The settings on record: compound 20 μM; thapsigargin 15 μM; 24 hrs. As for the experimental part: Protection against Thapsigargin (TG)-induced Cell-death. Human embryonic kidney (HEK293) cells were grown in Dulbecco's Modified Eagle's Medium (DMEM) with 10% FBS and 1% antibiotic antimycotic solution (ABAM). Mouse neuroblastoma (N2a) cells were grown in 1:1 DMEM:OPTI-MEM® with 5% FBS and 1% ABAM. All cells were grown in 10% CO2 in a humidified environment of the incubator. Cells grown in 96-well plates were exposed to a test compound (20 μM) for 2 hrs before addition of thapsigargin (15 μM for HEK293 cells and 1 μM for N2a cells) to induce ER stress. After incubation in cell-culture incubator for 24 hrs, ALAMARBLUE® regent (10% v/v) was added to the wells. Fluorescence reading was taken 2 hrs after the addition of the ALAMARBLUE® regent. Cell-viability was calculated as a percentage of relative fluorescence unit (RFU) compared to control.
The results are summarized in Table 2, where A represents a value greater than 50% cell rescue, B represents a value between 10% to 50% cell rescue, C represents a value between 1% to 10% cell rescue, and D represents a value no greater than 1% cell rescue.

What is called AUC is concentration integrated over time. High values mean high exposure, low ones low exposure. One may read the Cmax as the highest concentration seen after dosing. As a reminder, the half-life is the time needed for the level to fall by half in the phase considered. Higher therefore signals slow loss. For orientation: viability means a per cent measure of how many cells are alive, often set against a control. As to `Cc1ccc2cccc(NC(=O)c3ccc(OC(C)C)cc3)c2n1` [Compound A12, 4-Isopropoxy-N-(2-methylquinolin-8-yl)benzamide], in the data set on Ca^2+-ATPase, the “increase in baseline ATPase activity” value is 10-15%. In the data set with livers of ob/ob mice, the “phosphorylation of PERK and elF2α” value is given as “significantly reduced”. For the same compound, in the data set on ob/ob mice, the blood glucose entry is on record as “significantly lowered” and the “glucose level after the last injection” value is on record as “identical to lean mice”. In data set [1], the F came out at 2.3%, the exposure (AUC) amounted to 25.1 ng·h/mL, the Cmax was 200 nM and the half-life is 13.4 min. Also, the viability at 5 µM in the data set on human islet microtissues is 20 to 50%. The “N2a Cells (TG-induced) cell rescue” value with N2a cells was “B (B represents a value between 10% to 50% cell rescue)”. Further, the “HEK293 Cells (TG-induced) cell rescue” value in the data set on HEK293 cells was “A (A represents a value greater than 50% cell rescue)”.

With `Cc1ccc2cccc(NC(=O)c3ccc(N(C)C)cc3)c2n1` [Compound C18, 4-N,N-Dimethylamino-N-(2-methylquinolin-8-yl)benzamide], the “increase in baseline ATPase activity” value with Ca^2+-ATPase is “greater than 15%”. For the same compound, the “phosphorylation of PERK and elF2α” value in the data set with livers of ob/ob mice is “significantly reduced”. Further, in the data set with ob/ob mice, the blood glucose entry is given as “significantly lowered” and the “glucose level after the last injection” value was “identical to lean mice”. For the same compound, in data set [1], the F was found to be 35%, the AUC was 380 ng·h/mL, the peak level (Cmax) was 900 nM and the half-life was 53.4 min. Moreover, in data set [1] (compared with other SERCA modulators, see Table 6), the “pharmacokinetic properties as measured by CMAX, AUC and F (%)” value is listed as “significantly improved pharmacokinetic properties”. In addition, the viability at 5 µM in the data set with human islet microtissues was above 50%. Further, the “N2a Cells (TG-induced) cell rescue” value in the data set on N2a cells was “A (A represents a value greater than 50% cell rescue)”. Also, in the data set with HEK293 cells, the “HEK293 Cells (TG-induced) cell rescue” value is listed as “A (A represents a value greater than 50% cell rescue)”.
